Measurements reported in US20110045032A1 (priority 2001, published 2011).

Columns and labels:
[1] = system: dust mite-sensitized rabbits; assay: Pulmonary function after allergen challenge, intratracheal powder (Example 25); type: in vivo
Experimental: This study defines the effect of 7 days of treatment with DHEA-S on allergen-induced bronchial hyperresponsiveness (BHR), early and late phase responses, and pulmonary inflammation in dust mite-sensitized rabbits. Baseline BHR and inflammation were first determined. The following week, allergen challenge, pulmonary function testing and BALF were performed on the untreated rabbits. Histamine sensitivity was determined 24 hours post allergen challenge. Rabbits were rested for 3 weeks then baseline values were re-established. The following week, DHEA-S (5 mg/day) was delivered once a day for 7 days via an intratracheal powder injector through the endrotracheal tube of the anesthetized rabbit. On day 8, 24 hrs after the last treatment, allergen challenge, pulmonary function testing and BALF were performed as previously. On day 9, 24 hrs after allergen challenge, a histamine challenge was performed. The drug was not micronized prior to use thus only a portion of the administered date was expected to reach the deep lung. The study includes 4 animals studied under a crossover design. The treatment with DHEA-S led to changes in the disease status of the animals that are described in the following paragraph.
Effects on airway obstruction were measured by changes in dynamic compliance and total lung resistance in response to allergen challenge. Rabbits were monitored for 6 hours following allergen challenge and the values plotted against time. Changes in dynamic compliance were determined by the % change in compliance as compared to the animal's initial saline value recorded prior to challenge. Changes in response to allergen and/or treatment were calculated using the area under the curve (AUC) where an AUC unit is defined as % change×hour. Treatment with DHEA-S attenuated the drop in airway compliance following allergen challenge by 86% as compared to allergen alone. Following allergen alone the total AUC was −146 units compared to −20 units for animals treated with DHEA-S. This difference in the total AUC for vehicle and DHEA-S treated animals was determined to be significant using Student's t-test for paired observations, p=0.036. Similarly, treatment with DHEA-S attenuated the increase in airway resistance following allergen challenge by 54% as compared to allergen alone. […] Variability during the late phase kept differences in AUC between the vehicle and drug treatment groups from being significant when analyzed using a paired t-test.

[2] = system: dust mite-sensitized rabbits; assay: BALF cell count, nebulized (Example 26); type: in vivo
Experimental: (§1) This study defines the effect of 7 days of treatment with DHEA-S on allergen-induced bronchial hyperresponsiveness (BHR), early and late phase responses, and pulmonary inflammation in dust mite-sensitized rabbits. Baseline BHR and inflammation were first determined. DHEA-S (5 mg/ml, 2 ml nebulized) or an equivalent volume of vehicle was delivered once per day via nebulization through a pediatric facemask covering the nose and mouth on days 1 through 7. On day 8, 24 hours after the last treatment, allergen challenge, pulmonary function testing and BALF were performed. On day 9, 24 hours after allergen challenge a histamine challenge was performed and the lungs removed for histology. The study includes 5 animals studied under a crossover design. There was a 3 week resting period between study arms and lungs were taken during the second treatment arm only. The treatment with DHEA-S led to the changes in the disease status of the animals described in the following paragraph.

[3] = Serum and BAL DHEA and DHEA-S levels (Example 26); type: in vivo, rabbits; details: rabbit, serum, inhaled, 10 mg/day; twenty-four hours after the last of seven daily treatments; prior 4.7
Experimental: as §1

[4] = system: ragweed-sensitized mice; assay: BAL cell populations after methacholine challenge (Example 28); type: in vivo; details: Ragweed alone 13.8%; P<0.05
Experimental: Two groups of mice were sensitized with two intraperitoneal injections and one intranasat administration of ragweed allergen (Ambrosia artemistifolia) on days 0, 4 and 11 respectively. A third group was treated similarly with saline to serve as non-allergic controls. The next two days, the treatment group animals were exposed to DHEA-S delivered as an aerosol (5 mg/ml suspension in saline, 2 ml nebulized) using the whole-body plethysmograph system (Buxco Electronics, Inc., Sharon, Conn.) and a DeVilbiss ultrasonic nebulizer. Twenty-four hours after the last drug exposure, mice were challenged with increasing concentrations of methacholine to determine bronchial hyperresponsiveness and then lavaged to determine relative changes in cell populations in BAL fluid.

[5] = system: dust mite-sensitized cynomolgus monkeys; assay: Early phase pulmonary function response to allergen (Example 24); type: in vivo
Experimental: This study defines the effect of 5 days of treatment with DHEA-S on allergen-induced early phase response, and pulmonary inflammation in dust mite-sensitized cynomolgus monkeys. Baseline parameters were measured the week prior to treatment. DHEA-S (5 mg/ml, 2 ml nebulized) or an equivalent volume of saline was delivered once per day via nebulization (Pari LC+) through a canine facemask covering the nose and mouth on days 1 through 5. Allergen challenge and pulmonary function testing were performed on day 3 several hours after drug treatment, and broncho-alveolar lavage fluid BALF) was collected 48 hours post-challenge. The study includes 6 animals studied under a crossover design with a minimum of 4 weeks rest between study arms. The treatment with DHEA-S led to the following changes in the disease status of the animals:
Effects on airway obstruction were measured by changes in dynamic compliance in response to allergen challenge. Allergic Cynomolgus monkeys were monitored for 15 minutes following allergen challenge and the values plotted against time. Changes in dynamic compliance were determined by the % change in compliance as compared to the animal's initial saline value recorded prior to challenge. Changes in response to allergen and/or treatment were calculated using the area under the curve (AUC) where an AUC unit is defined as % change×minutes. Treatment with DHEA-S attenuated the drop in airway compliance following allergen challenge by 87% as compared to saline treatment. With saline treatment, the total AUC was −394±127 units compared to −49±116 units for animals treated with DHEA-S. See, FIGS. 4.3.1.1; 4.3.1.2. This difference in the total AUC for vehicle and DHEA-S treated animals was determined to be significant using Student's t-test for paired observations, p=0.035. Likewise, treatment with DHEA-S attenuated the increase in airway resistance following allergen challenge by 90% as compared to saline treatment.

[6] = Acute inhalation toxicity in dogs; type: in vivo; details: dog, in vivo, inhaled; preclinical toxicology studies; not achieved at this dose; read-out: maximum tolerated dose
Experimental: (§2) Other findings were minor in nature and detailed in the reports that follow. Therefore, nebulization of an aqueous solution was determined to be feasible but not practical due to the inability to achieve a sufficient safety factor to support clinical trials.

[7] = system: dogs; assay: Acute inhalation toxicity in dogs; type: in vivo; details: inhalation
Experimental: as §2

[8] = 6 hours after allergen-challenge, compared to vehicle control

CC12CCC3C(CC=C4CC(OS(=O)(=O)[O-])CCC43C)C1CCC2=O.[Na+] (stereo not drawn) [DHEA-S, Dehydroepiandrosterone sulfate]
attenuation of the drop in airway compliance following allergen challenge ([1]; 5 mg/day intratracheal powder, 7 days, compared to allergen alone): 86% | total area under the curve for the change in resistance following allergen challenge ([1]; 6 hours, control 1069±243, not significant): 495 | total area under the curve for the change in compliance following allergen challenge ([1]; AUC unit = % change×hour, 6 hours, control −146±29): −20 units | attenuation of the increase in airway resistance following allergen challenge ([1]; compared to allergen alone): 54% | reduction of airway resistance changes ([1]; in the 6 hours after aerosol dust mite challenge): over 200% | total area under the curve for the change in compliance following allergen challenge ([1]; inhaled or nasal, 6 h): −20±23 units | 24-hour histamine responsiveness following allergen challenge ([1]; rabbit, in vivo): downward shift | lower numbers of eosinophils in BALF [2, 8]: 52% | lower numbers of macrophages in BALF [2, 8]: 68% | lower numbers of neutrophils in BALF [2, 8]: 69% | effect on BALF cell numbers ([2]; 24 hours after dust mite challenge): not significant | decrease of inflammatory cell migration into the BAL fluid ([2]; rabbit, in vivo): 68% | eosinophils in BAL fluid ([2]; six hours after dust mite challenge, vehicle 8): 4 ×10^4 eosinophils/ml | third cell count in BAL fluid (cell type not given) ([2]; six hours after dust mite challenge, vehicle 37): 12 ×10^4 | neutrophils in BAL fluid ([2]; six hours after dust mite challenge, vehicle 94): 29 ×10^4 neutrophils/ml | concentration at 24 h after the last dose [3]: 49 ng/mL | percent neutrophils in BAL [4]: 3.2% | total area under the curve for the change in compliance following allergen challenge ([5]; AUC unit = % change×minutes, 15 minutes, saline −394±127): −49±116 units | total area under the curve for the change in resistance following allergen challenge ([5]; AUC unit = % change×minutes, saline 564±266): 54±90 units | attenuation of the increase in airway resistance following allergen challenge ([5]; compared to saline treatment): 90% | attenuation of the drop in airway compliance following allergen challenge ([5]; nebulized 5 mg/ml, 2 ml once per day, 5 days, compared to saline treatment): 87% | MTD [6]: > 2 mg/kg/day | maximum tolerated dose [7]: could not be achieved | adverse effects to the respiratory tract ([7]; up to the maximum feasible dose): did not produce any adverse affects
